# Test results: patent US20240033237A1, “USE OF A-KETOGLUTARATE IN MANUFACTURE OF MEDICAMENT” (TONGJI UNIVERSITY, priority 2019, published 2024)
# Key:
# NF-κB signaling pathway = assay: Activation of NF-κB signaling pathway in IL-1β-stimulated chondrocytes (whole-genome sequencing, nuclear P65 western blot); assay type: cell-based, mouse
# Method: Mouse chondrocytes were obtained from 7-day-old C57BL/6 mice (Shanghai Slac laboratory animal Co., Ltd.), and the procedure was as follows: under aseptic surgical conditions, bilateral knee cartilages of C57 mice were carefully stripped and digested with 0.2% neutral collagenase (Serva, Germany) for 8 h; cell precipitates were obtained by centrifugation, and the cells were resuspended in modified Eagle medium (DMEM) (Gibco, USA) containing 10% FBS, inoculated in culture dishes, and cultured with high-sugar DMEM medium (containing 10% FBS, 100 U/mL penicillin and 100 mg/L streptomycin) at 37° C. in a 5% CO2 constant temperature incubator. The medium was changed for the first time at 48 h. […] The cells were collected by centrifugation and resuspended, and the concentration was adjusted for inoculation in culture dishes. The cells were subcultured by the above method, and the obtained cells were labeled as P1, P2, P3 generations, etc. P1 generation mouse chondrocytes cultured in Embodiment 1 were subjected to western blot analysis through operations including the following: • 1. Collecting of protein samples: The culture medium was sucked out, and the cells were washed twice with PBS at 4° C. and then dried. […] The protein concentration was determined by the BCA Protein Quantification Kit. […]
# skin hair follicles = assay: Regeneration level of skin hair follicles in mice, intradermal injection, histological staining; assay type: in vivo; conditions: 12-month-old mice, 4 weeks after injection, vs PBS group
# Method: The skin on the back of posterior limbs of 12-month-old aged mice was taken, and the treatment group was intradermally injected with PBS-diluted α-KG (1 μl of dimethyl-α-KG dissolved in 4 μl of PBS). A sham operation was performed and PBS was injected as a control. Histological staining was performed to observe the changes of skin hair follicles at 4 weeks after injection.
smiles,measurement,setting,value
"COC(=O)CCC(=O)C(=O)OC [α-KG, dimethyl-α-ketoglutarate]",expression of P65 in the NF-κB signaling pathway in the nucleus,"NF-κB signaling pathway; western blot, IL-1β 0 min, 15 min, 30 min, 60 min, 7 mM α-KG",significantly inhibited
same,expression of many genes in the NF-κB signaling pathway,"NF-κB signaling pathway; whole-genome sequencing, IL-1β stimulation, α-KG complemented",suppressed
same,number of skin hair follicles,skin hair follicles,significantly increased
